{"source": "patent US20100004469A1", "about": "“ANTIMICROBIAL AGENTS AND MICROBICIDAL AGENTS” (KABUSHIKI KAISHA TOYOTA JIDOSHOKKI, priority 2006, published 2010)", "format_in_all_cases": "cell-based", "key": {"[1]": {"test_system": "Staphylococcus aureus subsp. aureus (NBRC 13276)", "assay": "Test for antimicrobial activity, viable cell count (Example 1)", "conditions": "room temperature", "protocol": "(§1) After said strains were cultured in SCD agar medium at 35±2° C. for 18 to 24 hours, inocula were prepared by suspending the cultured stains in sterile purified water and adjusting the turbidity so as to correspond with No. 1 MacFarland. Using agar plates, the concentrations of the inocula were measured according to the agar plate mixed dilution method (Table 1). 3 mL of each of the 10%, 1.0% and 0.1% aqueous solutions of the test compound, and of sterile purified water (control) were prepared (n=1). 0.03 mL of said inocula was inoculated into each of the test solutions at room temperature. Immediately after, 15 minutes after, and 180 minutes after the inoculations, 0.5 mL of each of the test solutions was added to 49.5 mL of a sterile phosphate buffer (Pro-media MV2-1000, manufactured by ELMEX), and mixed. A ten fold dilution series of each of the mixtures was constructed. Then, the number of the viable cells therein were measured, and then it was converted to the number of viable cells per 1 mL of the test solutions or control. The number of viable cell was measured according to “Viable cell count; the agar plate mixed dilution method in the Japanese Pharmacopoeia, 14th revised edition”."}, "[2]": {"test_system": "Escherichia coli (NBRC 3972)", "assay": "Test for antimicrobial activity, viable cell count (Example 1)", "conditions": "room temperature", "protocol": "as §1"}, "[3]": {"test_system": "Salmonella Enteritidis (NBRC 3313)", "assay": "Test for antimicrobial activity, viable cell count (Example 1)", "conditions": "room temperature", "protocol": "as §1"}, "[4]": {"test_system": "Staphylococcus aureus subsp. aureus (NBRC 13276)", "assay": "Test for antimicrobial activity with neutralization, viable cell count (Example 2)", "conditions": "20% aqueous solution, neutralized", "protocol": "(§2) After said strains were cultured in SCD agar medium at 35±2° C. for 18 to 24 hours, inocula were prepared by suspending the stains in sterile purified water and adjusting the turbidity so as to correspond with No. 1 MacFarland. Using agar plate, the concentrations of the inocula were measured according to the agar plate mixed dilution method (Table 3). 3 mL of each of 20% aqueous solution of the test compound, a stock solution of a comparative compound and sterile water, (control) was prepared (n=1). 0.03 mL of said inocula was inoculated into each of the test solutions at a room temperature. Immediately after, 15 minutes after and 180 minutes after the inoculations, neutralization was performed under the following conditions. 0.5 mL of the test solution was added to 4.5 mL of sterile sodium hydrate solution at the concentration of 0.25 mol/L (sodium hydrate; manufactured by Wako Pure Chemical Industries, Ltd.), and mixed. Then, 45 mL of a sterile phosphate buffer (Pro-media MV2-1000, manufactured by ELMEX) was immediately added and mixed. 0.5 mL of the test solution was added to 4.5 mL of sterile sodium hydrate solution at the concentration of 2.0 mol/L, and mixed. Then, 45 mL of a sterile phosphate buffer was immediately added and mixed. A ten-fold dilution series of each of the neutralization solution was prepared. Then, the number of the viable cells therein was measured and it was converted to the number of viable cells per 1 mL of the test solutions or control. The number of viable cell was measured according to “Viable cell count; the agar plate mixed dilution method in the Japanese Pharmacopoeia, 14th revised edition”."}, "[5]": {"test_system": "Escherichia coli (NBRC 3972)", "assay": "Test for antimicrobial activity with neutralization, viable cell count (Example 2)", "conditions": "20% aqueous solution, neutralized", "protocol": "as §2"}, "[6]": {"test_system": "Salmonella Enteritidis (NBRC 3313)", "assay": "Test for antimicrobial activity with neutralization, viable cell count (Example 2)", "conditions": "20% aqueous solution, neutralized", "protocol": "as §2"}}, "data": [{"smiles": "O=C(O)c1cc(C(=O)O)oc(=O)c1", "note": "[test compound, 2H-pyran-2-on-4,6-dicarbonic acid]", "values": [{"measurement": "number of viable cells, Measured 15 min. after inoculation", "setting": "[1]; 0.1% aqueous solution", "value": "<100", "unit": "cfu/mL"}, {"measurement": "number of viable cells, Measured 180 min. after inoculation", "setting": "[1]; 0.1% aqueous solution", "value": "<100", "unit": "cfu/mL"}, {"measurement": "number of viable cells, Measured immediately after inoculation", "setting": "[1]; 0.1% aqueous solution", "value": "11,000 cfu/mL"}, {"measurement": "number of viable cells, Measured 15 min. after inoculation", "setting": "[1]; 1.0% aqueous solution", "value": "<100", "unit": "cfu/mL"}, {"measurement": "number of viable cells, Measured 180 min. after inoculation", "setting": "[1]; 1.0% aqueous solution", "value": "<100", "unit": "cfu/mL"}, {"measurement": "number of viable cells, Measured immediately after inoculation", "setting": "[1]; 1.0% aqueous solution", "value": "5,000 cfu/mL"}, {"measurement": "number of viable cells, Measured 15 min. after inoculation", "setting": "[1]; 10% aqueous solution", "value": "<100", "unit": "cfu/mL"}, {"measurement": "number of viable cells, Measured 180 min. after inoculation", "setting": "[1]; 10% aqueous solution", "value": "<100", "unit": "cfu/mL"}, {"measurement": "number of viable cells, Measured immediately after inoculation", "setting": "[1]; 10% aqueous solution", "value": "<100", "unit": "cfu/mL"}, {"measurement": "number of viable cells, Measured 15 min. after inoculation", "setting": "[2]; 0.1% aqueous solution", "value": "<100", "unit": "cfu/mL"}, {"measurement": "number of viable cells, Measured 180 min. after inoculation", "setting": "[2]; 0.1% aqueous solution", "value": "<100", "unit": "cfu/mL"}, {"measurement": "number of viable cells, Measured immediately after inoculation", "setting": "[2]; 0.1% aqueous solution", "value": "10,000 cfu/mL"}, {"measurement": "number of viable cells, Measured 15 min. after inoculation", "setting": "[2]; 1.0% aqueous solution", "value": "<100", "unit": "cfu/mL"}, {"measurement": "number of viable cells, Measured 180 min. after inoculation", "setting": "[2]; 1.0% aqueous solution", "value": "<100", "unit": "cfu/mL"}, {"measurement": "number of viable cells, Measured immediately after inoculation", "setting": "[2]; 1.0% aqueous solution", "value": "<100", "unit": "cfu/mL"}, {"measurement": "number of viable cells, Measured 15 min. after inoculation", "setting": "[2]; 10% aqueous solution", "value": "<100", "unit": "cfu/mL"}, {"measurement": "number of viable cells, Measured 180 min. after inoculation", "setting": "[2]; 10% aqueous solution", "value": "<100", "unit": "cfu/mL"}, {"measurement": "number of viable cells, Measured immediately after inoculation", "setting": "[2]; 10% aqueous solution", "value": "<100", "unit": "cfu/mL"}, {"measurement": "number of viable cells, Measured 15 min. after inoculation", "setting": "[3]; 0.1% aqueous solution", "value": "<100", "unit": "cfu/mL"}, {"measurement": "number of viable cells, Measured 180 min. after inoculation", "setting": "[3]; 0.1% aqueous solution", "value": "<100", "unit": "cfu/mL"}, {"measurement": "number of viable cells, Measured immediately after inoculation", "setting": "[3]; 0.1% aqueous solution", "value": "12,000 cfu/mL"}, {"measurement": "number of viable cells, Measured 15 min. after inoculation", "setting": "[3]; 1.0% aqueous solution", "value": "<100", "unit": "cfu/mL"}, {"measurement": "number of viable cells, Measured 180 min. after inoculation", "setting": "[3]; 1.0% aqueous solution", "value": "<100", "unit": "cfu/mL"}, {"measurement": "number of viable cells, Measured immediately after inoculation", "setting": "[3]; 1.0% aqueous solution", "value": "<100", "unit": "cfu/mL"}, {"measurement": "number of viable cells, Measured 15 min. after inoculation", "setting": "[3]; 10% aqueous solution", "value": "<100", "unit": "cfu/mL"}, {"measurement": "number of viable cells, Measured 180 min. after inoculation", "setting": "[3]; 10% aqueous solution", "value": "<100", "unit": "cfu/mL"}, {"measurement": "number of viable cells, Measured immediately after inoculation", "setting": "[3]; 10% aqueous solution", "value": "<100", "unit": "cfu/mL"}, {"measurement": "number of viable cells, Measured 15 min. after inoculation", "setting": "[4]; 15 min. after inoculation", "value": "<100", "unit": "cfu/mL"}, {"measurement": "number of viable cells, Measured 180 min. after inoculation", "setting": "[4]; 180 min. after inoculation", "value": "<100", "unit": "cfu/mL"}, {"measurement": "number of viable cells, Measured immediately after inoculation", "setting": "[4]; immediately after inoculation", "value": "<100", "unit": "cfu/mL"}, {"measurement": "number of viable cells, Measured 15 min. after inoculation", "setting": "[5]; 15 min. after inoculation", "value": "<100", "unit": "cfu/mL"}, {"measurement": "number of viable cells, Measured 180 min. after inoculation", "setting": "[5]; 180 min. after inoculation", "value": "<100", "unit": "cfu/mL"}, {"measurement": "number of viable cells, Measured immediately after inoculation", "setting": "[5]; immediately after inoculation", "value": "<100", "unit": "cfu/mL"}, {"measurement": "number of viable cells, Measured 15 min. after inoculation", "setting": "[6]; 15 min. after inoculation", "value": "<100", "unit": "cfu/mL"}, {"measurement": "number of viable cells, Measured 180 min. after inoculation", "setting": "[6]; 180 min. after inoculation", "value": "<100", "unit": "cfu/mL"}, {"measurement": "number of viable cells, Measured immediately after inoculation", "setting": "[6]; immediately after inoculation", "value": "<100", "unit": "cfu/mL"}]}]}
